Experimental data published in patent US12286401B2, “Small molecules that sensitize HIV-1 infected cells to antibody dependent cellular cytotoxicity” (THE TRUSTEES OF THE UNIVERSITY OF PENNSYLVANIA, priority 2018, dated 2025).

What was measured:
[1] = test system: CH58TF infected primary CD4+ T-cells; assay: HIV+ patient sera/plasma recognition of CH58TF infected primary CD4+ T-cells (flow cytometry cell-surface staining); type: cell-based, HIV-1; settings: Human immunodeficiency virus 1, T-cell, read-out: Fold Over DMSO (patient sera, n = 3)
Protocol: (§1) Cell-surface staining of primary CD4+ T cells from healthy HIV uninfected individuals or CEM-NKr cells is performed, as described in Prevost, “Influence of the Envelope gp120 Phe 43 Cavity on HIV-1 Sensitivity to Antibody-Dependent Cell-Mediated Cytotoxicity Responses,” 2017, J. Virol 91; Richard, “CD4 mimetics sensitize HIV-1-infected cells to ADCC,” 2015, Proc. Natl. Acad. Sci. USA, 112:E2687-2694; Richard, “Small CD4 Mimetics Prevent HIV-1 Uninfected Bystander CD4+ T Cell Killing Mediated by Antibody-dependent Cell-mediated Cytotoxicity,” 2016, EBioMedicine 3:122-134; Veillette, “The HIV-1 gp120 CD4-Bound Conformation Is Preferentially Targeted by Antibody-Dependent Cellular Cytotoxicity-Mediating Antibodies in Sera from HIV-1-Infected Individuals,” 2015, J. Virol., 89:545-551; Veillette, “Interaction with cellular CD4 exposes HIV-1 envelope epitopes targeted by antibody-dependent cell-mediated cytotoxicity,” 2014, J. Virol., 88:2633-2644; Richard, “Uninfected Bystander Cells Impact the Measurement of HIV-Specific Antibody-Dependent Cellular Cytotoxicity Responses,” 2018, MBio. 9(2): e00358-18; Richard, “BST-2 Expression Modulates Small CD4-Mimetic Sensitization of HIV-1-Infected Cells to Antibody-Dependent Cellular Cytotoxicity,” 2017, J. Virol. 91(11):e00219-17. Binding of HIV-1 infected cells by HIV+ sera (1:1000 dilution) or anti-Env Abs (such as 17b) is performed […] in vitro infection at 37° C. in presence of different concentrations of the MCG analogs or with equivalent volume of vehicle (DMSO). Cells infected with HIV-1 primary isolates are stained intracellularly for HIV-1 p24 using the Cytofix/Cytoperm Fixation/Permeabilization Kit (BD Biosciences, Mississauga, ON, Canada) and then fluorescent anti-p24 mAb (PE-anti-p24, clone KC57; Beckman Coulter/Immunotech, Hialeah, FL) (1:100 final concentration). The percentage of infected cells (p24^+ or GFP+ cells) is determined by gating the living cell population based on the viability dye staining. Samples are analyzed on an LSRII cytometer (BD Biosciences, Mississauga, ON, Canada) and data analysis is performed using FlowJo vX0.7 (Tree Star, Ashland, OR, USA).
HIV+ Patient Sera (n=3) Recognition of CH58TF Infected Primary CD4+ T-Cells
Staining with patient sera and 50 μM of compounds given as a fold change over DMSO (vehicle).
(§2) Briefly, Primary CD4 T cells isolated from PBMC were infected with HIV-1CH58TF for 48 hours. For cell surface staining, 5 μg/ml 17b (FIG. 15A) or 1:1000 diluted HIV+ plasma (n=15) (FIG. 15B) were used in the presence of the different MCG analogs (50 μM), (+)-BNM-III-170 or with an equivalent volume of vehicle (DMSO). An Alexa Fluor 647-conjugated anti-human IgG secondary Ab was then used for fluorescent labeling. For ADCC (FIG. 15C), infected cells were used as target cells in a FACS-based ADCC assay that measures the killing of infected (p24+ cells). See, Madani, 2016, J. Virol., 90:5031-5046. The assay determines susceptibility to ADCC mediated by a 1/1,000 dilution of plasma from 15 HIV-1-infected individuals in the presence of the different MCG analogs (50 μM), (+)-BNM-III-170 (50 μM) or with an equivalent volume of vehicle (DMSO). Correlation between cell-surface staining with HIV+ plasma and ADCC was calculated using the Spearman rank correlation (FIG. 15D).

Solubility in PBS = type: physicochemical; settings: Yes/NO
[2] = test system: CH58TF infected primary CD4+ T-cells; assay: Recognition of HIV-1 infected cells by 17b (flow cytometry cell-surface staining); type: cell-based; settings: Human immunodeficiency virus 1, T-cell, read-out: Fold Over DMSO (17b, n = 1)
Protocol: as §1, §2

[3] = test system: HIV-1JR-FL EnvΔCT expressed at the surface of HOS cells; assay: Cell-based ELISA (CBE), 17b readout; settings: MCG analogs 50 μM; BNM-III-170 5 μM; 2G12 and DMSO normalized
In short: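 HOS cells transiently expressing cytoplasmic-tail-truncated HIV-1JR-FL Env were treated 30 min at room temperature with compounds (50 μM), sCD4 ([…]) or DMSO, then 1 h with 17b antibody. Bound 17b was detected by HRP-conjugated anti-Fc chemiluminescence; values are fold over BNM-III-170 (5 μM), normalized to 2G12 and DMSO.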

| SMILES | fold induction at 50 µM [1] | Solubility (in PBS) (Solubility in PBS) | fold induction at 50 µM [2] | Fold over BNM-III-170 - 17b binding (±0.05) [3] [fold] |
| --- | --- | --- | --- | --- |
| CS(=O)(=O)N1CCC[C@H](C(=O)Nc2ccc(C(F)(F)F)cc2)C1 [(S)-MCG-III-027-A04] | 1.4 | Yes | 1.07 | 0.17 |
| CS(=O)(=O)N1CCC[C@H](C(=O)Nc2ccc(F)c(Cl)c2)C1 [(S)-MCG-III-085-A02] | 1.13 | Yes | 2.15 | 0.22 |
| CS(=O)(=O)N1CCC[C@H](C(=O)Nc2ccc(Cl)c(Cl)c2)C1 [(S)-MCG-III-085-A03] | 1.46 | Yes | 3.34 | 0.19 |
| CS(=O)(=O)N1CCC[C@H](C(=O)Nc2ccc(F)c(F)c2)C1 [(S)-MCG-III-085-A04] | 1.31 | Yes | 3 | 0.10 |
| CS(=O)(=O)N1CCC[C@H](C(=O)Nc2ccc(Cl)c(Br)c2)C1 [(S)-MCG-III-085-A05] | 1.11 | Yes | 2.15 | 0.16 |
| CS(=O)(=O)N1CCC[C@H](C(=O)Nc2ccc(Br)c(Cl)c2)C1 [(S)-MCG-III-085-A06] | 1.61 | Yes | 3.3 | 0.14 |
| CCS(=O)(=O)N1CCC[C@H](C(=O)Nc2ccc(F)c(Cl)c2)C1 [(S)-MCG-III-085-C02] | 1.19 | Yes | 2.15 | 0.20 |
| CCS(=O)(=O)N1CCC[C@H](C(=O)Nc2ccc(Cl)c(Cl)c2)C1 [(S)-MCG-III-085-C03] | 1.65 | Yes | 3.83 | 0.25 |
| CCS(=O)(=O)N1CCC[C@H](C(=O)Nc2ccc(F)c(F)c2)C1 [(S)-MCG-III-085-C04] | 1.68 | Yes | 3.95 | 0.26 |
| CCS(=O)(=O)N1CCC[C@H](C(=O)Nc2ccc(Cl)c(Br)c2)C1 [(S)-MCG-III-085-C05] | 1.04 | Yes | 1.77 | 0.26 |
| CS(=O)(=O)N1CCC[C@H](C(=O)Oc2ccc(Cl)c(F)c2)C1 [(S)-MCG-III-213-A01] | 1.08 | Yes | 1.08 | 0.07 |
| CCS(=O)(=O)N1CCC[C@H](C(=O)Oc2ccc(Cl)c(F)c2)C1 [(S)-MCG-III-213-A02] | 1.03 | Yes | 1.07 | 0.07 |
| Cn1cnc(S(=O)(=O)N2CCC[C@H](C(=O)Oc3ccc(Cl)c(F)c3)C2)c1 [(S)-MCG-III-213-A04] | 1.07 | Yes | 1.06 | 0.10 |
| CS(=O)(=O)N1CCOC(C(=O)Nc2ccc(Cl)c(F)c2)C1 (centres unmarked) [MCG-III-211-A01] | 1.47 | Yes | 2.63 | 0.28 |
| CCS(=O)(=O)N1CCOC(C(=O)Nc2ccc(Cl)c(F)c2)C1 (centres unmarked) [MCG-III-211-A02] | 1.81 | Yes | 3.64 | 0.33 |
| Cn1cnc(S(=O)(=O)N2CCOC(C(=O)Nc3ccc(Cl)c(F)c3)C2)c1 (centres unmarked) [MCG-III-211-A04] | 1.63 | Yes | 3.61 | 0.35 |
| CC(C)(C)OC(=O)N1CCN(S(C)(=O)=O)CC1C(=O)Nc1ccc(Cl)c(F)c1 (centres unmarked) [MCG-III-212-A01] | 0.982 | Yes | 0.968 | 0.06 |
| CCS(=O)(=O)N1CCNC(C(=O)Nc2ccc(Cl)c(F)c2)C1 (centres unmarked) [MCG-III-212-A02] | 1.85 | Yes | 3.95 | 0.36 |
| Cn1cnc(S(=O)(=O)N2CCN(C(=O)OC(C)(C)C)C(C(=O)Nc3ccc(Cl)c(F)c3)C2)c1 (centres unmarked) [MCG-III-212-A04] | 0.924 | Yes | 1.04 | 0.06 |
| CS(=O)(=O)N1CC(C(=O)Nc2ccc(Cl)c(F)c2)Cc2ccccc21 (centres unmarked) [MCG-III-214-A01] | 1.29 | Yes | 1.39 | 0.24 |
| O=C(Nc1ccc(Cl)c(F)c1)C1CNCCN1 (centres unmarked) [MCG-III-216-A01] | 0.999 | Yes | 1.73 | 0.21 |
| CS(=O)(=O)N1CCNC(C(=O)Nc2ccc(Cl)c(F)c2)C1 (centres unmarked) [MCG-III-216-A02] | 1.03 | Yes | 1.3 | 0.10 |
| O=C(Nc1ccc(Cl)c(F)c1)C1CN(S(=O)(=O)c2ccccc2)CCN1 (centres unmarked) [MCG-III-216-A03] | 1.05 | Yes | 1.47 | 0.11 |
